{
  "source": "patent US20260345582A1",
  "about": "“PRODRUG FOR ANTI-AGING RELATED DISEASES AND USE METHOD THEREOF” (Beijing SunCell Bio-Medical Co., Ltd., priority 2022, published 2026)",
  "key": {"[1]": {"tested_on": "A549 cells (human non-small cell lung cancer cell), induced senescent with Cisplatin", "experiment": "in vitro killing of induced senescent A549 cells (CCK-8)", "type": "cell-based", "description": "A. The killing results of some selected compounds in the in vitro compound library screening on the induced senescent A549 cell model. Wherein, MZ-1, dBET6, ARV-825, I-BET726, I-BET151, and INCB057643 are all BET inhibitors; A1331852 and A1155463 are novel Bcl-xL inhibitors; Dasatinib, Quercetin, Fisetin, Curcumin are the familiar active drugs or natural products.\nB. Comparison of the killing effects of three Bcl-xL inhibitors on the induced senescent A549 cell model. A549 represents the normal uninduced A549 cell group; and A549-CDDP represents the senescent A549 cell group induced with Cisplatin (CDDP) in vitro.\n(§1) Induction of the Cellular Senescence"}, "[2]": {"tested_on": "HEF cells (primary human embryonic skin fibroblast), induced senescent with Etoposide", "experiment": "in vitro killing of induced senescent HEF cells (CCK-8)", "type": "cell-based", "description": "C. Comparison of the killing effects of three Bcl-xL inhibitors on the induced senescent HEF cell model. HEF represents the isolated early generation uninduced HEF cell group; and HEF-ETO represents the senescent HEF cell group induced with Etoposide (ETO) in vitro.\nas §1"}, "[3]": {"tested_on": "mouse model of Bleomycin-induced pulmonary fibrosis", "experiment": "Masson staining of lungs (degree of fibrosis), Bleomycin-induced pulmonary fibrosis", "type": "in vivo, C57 mice", "conditions": "of 6 animals; A13 2 mg/kg, A13bGa1 5 mg/kg", "experimental": "A. Modelling of a mouse model of Bleomycin-induced pulmonary fibrosis, and the schematic diagram of treatment. Mice were modelled with Bleomycin administered via tracheal instillation on day 0, and the treatment with intraperitoneal injection of the drug was started on day 4. The drug was administered for 3 consecutive days per week, followed by a 4-day withdrawal, for 4 weeks.\nD. Representative results of HE and Masson staining of the pathological sections of lungs taken from different groups of mice after execution. Normal represents the saline tracheal instillation modelling control group; Vehicle represents the vehicle administration control group; A13bGa1 represents the prodrug treatment group; A13 represents the A1331852 treatment group. Scale bar: 500 μm.\nAll drugs were mixed in 85% physiological saline, 5% DMSO (Sigma, D8418) and 10% Solutol HS 15 (Sigma, 42966), and administered to mice by intraperitoneal (i.p.) injection. To treat the bleomycin-injured young mice, A13 (2 mg/kg), A13bGa1 (5 mg/kg), or an empty vehicle control was administered three consecutive days per week for four weeks. A1331852 (abbreviated as A13) was purchased from MCE.\nBleomycin-Induced Pulmonary Fibrosis\nBleomycin was purchased from Selleck. As previously reported (Bivas-Benita et al., Eur J Pharm Biopharm 61, 214-218 (2005)), a transtracheal injection of bleomycin (2 mg/kg) was performed to the young male C57 mice (8-10 weeks old) to induce lung fibrosis. Drug treatment was initiated four days after modelling, and the drug was administered three consecutive days per week for four consecutive weeks, after which the mice were executed for material collection.\nMasson trichrome stain kit (Solarbio, G1340) was used to detect fibrosis in the lung tissue. The formalin-fixed, and paraffin-embedded lung sections were dewaxed with xylene, and then rehydrated with 100% alcohol, 95% alcohol and distilled water. The sections were then stained according to the manufacturer's instructions. Afterwards, the sections were rapidly dehydrated with 95% alcohol and 100% alcohol, cleaned with xylene and covered with the coverslips. Images were acquired using a bright-field optical microscope (10× eyepiece) (OLYMPUS, BX43), and the degree of fibrosis of the lung tissue was graded according to the intensity of staining (weakly positive, moderately positive, moderately strong positive, and very strong positive)."}, "[4]": {"tested_on": "BJ cells (human skin fibroblast cell line)", "experiment": "in vitro killing of induced senescent BJ cells (CCK-8)", "type": "cell-based", "conditions": "human skin-derived fibroblasts, FIG. 3D", "description": "as §1"}, "[5]": {"tested_on": "normal cells (HEF, HELF, A549, MRC5, BJ, HUVEC)", "experiment": "in vitro toxicity to normal (non-senescent) cells, multiple cell models (CCK-8)", "type": "cell-based, human", "conditions": "especially some cells of primary origins sensitive to Bcl-xL inhibition", "description": "as §1"}, "[6]": {"experiment": "plasma metabolic stability, all species", "type": "in vitro ADME", "conditions": "human, monkey, canine, rat, and mouse; preliminary test", "experimental": "Plasma Metabolic Stability\nTermination of the reaction was accomplished by the addition of 3× volume of acetonitrile and centrifugation at 16000 g for 20 minutes. The supernatant was taken for a LC-MS/MS analysis. The chromatographic column: Waters XSelect HSS T3; the flow rate: 500 μL/min; the eluent: A, water (0.1% formic acid); B, acetonitrile (0.1% formic acid); the gradient elution: 0-1.5 min, 5% B, 1.5-9 min, 5%-80% B, 9-12 min, 80%-100% B, 12-14 min, 100% B, 14-14.3 min, 100%-5% B, 14.3-15 min, 5% B."}, "[7]": {"experiment": "liver microsomal metabolic stability, human", "experimental": "(§2) Hepatic Microsomal Metabolic Stability\n(§3) A13bGa1 was co-incubated with the mouse, rat, canine, monkey and human […] and the incubation medium at a final drug concentration of 1 μM in the incubation system for 60 minutes. Samples were taken and analyzed at time points 0, 15, 30, 45 and 60 minutes during the incubation. The reaction was terminated by adding an amount of acetonitrile solution containing the internal standard. […] The residual percentage, half-life, intrinsic clearance, amplified clearance, hepatic clearance and hepatic extraction ratio were determined. The entire experiment was performed in triplicate. All data calculations were performed by Microsoft Excel software. Peak areas were detected by extracting the ionic spectrum. The in vitro half-life (t1/2) of the parent compound was detected by fitting the natural logarithm of the percentage elimination of the parent compound linearly to time.\n(§4) The in vitro intrinsic clearance (in μL/min/mg protein) was calculated using the following equation: in vitro CLint=kV/N\n(§5) The amplified clearance (in mL/min/kg) was calculated using the following equation: Amplified CLint=kV/N×the amplification factor\n(§6) The hepatic clearance (in mL/min/kg) was calculated using the following equation: The predicted hepatic CLH=(Q×Fu/RB×the amplified CLint)/(Q+Fu/RB×the amplified CLint) • V=the incubation volume per well (0.2 mL); • N=the total amount of protein (mg) • Q=the hepatic blood flow (mL/min/kg) • Fu=the plasma free rate (assumed to be 1) • RB=the whole blood partition coefficient (assumed to be 1)\n(§7) The hepatic uptake rate was calculated using the following equation:\n(§8) The hepatic extraction ratio (ER)=(the predicted hepatic CLH)/Q"}, "[8]": {"experiment": "liver microsomal metabolic stability, monkey", "experimental": "as §2, §3, §4, §5, §6, §7, §8"}},
  "data": [
    {"smiles": "Cc1c(-c2ccc(N3CCc4cccc(C(=O)Nc5nc6ccccc6s5)c4C3)nc2C(=O)O)cnn1CC12CC3CC(CC(C3)C1)C2", "note": "[Compound A13, 3-[1-(adamantan-1-ylmethyl)-5-methylpyrazol-4-yl]-6-{8-[(1,3-benzothiazol-2-yl)carbamoyl]-3,4-dihydro-1H-isoquinolin-2-yl}pyridine-2-carboxylic acid]", "values": [
      {"measurement": "selective killing effect on the senescent cells", "setting": "[1]; A549-CDDP vs A549, FIG. 1B", "value": "selective killing effect on the senescent cells"},
      {"measurement": "senescent cell killing activity and selectivity, compound screening", "setting": "[1]; induced senescent A549 cell model, FIG. 1A", "value": "good senescent cell killing activity and selectivity in vitro"},
      {"measurement": "selective killing effect on the senescent cells", "setting": "[2]; HEF-ETO vs HEF, FIG. 1C", "value": "selective killing effect on the senescent cells"},
      {"measurement": "degree of fibrosis, Masson staining: Moderately strong positive (+++)", "setting": "[3]", "value": "1 number of animals"},
      {"measurement": "degree of fibrosis, Masson staining: extremely strong positive (++++)", "setting": "[3]", "value": "2 number of animals"},
      {"measurement": "degree of fibrosis, Masson staining: moderately positive (++)", "setting": "[3]", "value": "1 number of animals"},
      {"measurement": "degree of fibrosis, Masson staining: not positive (−)", "setting": "[3]", "value": "0 number of animals"},
      {"measurement": "degree of fibrosis, Masson staining: weakly positive (+)", "setting": "[3]", "value": "2 number of animals"}
    ]},
    {"smiles": "Cc1c(-c2ccc(N3CCc4cccc(C(=O)Nc5nc6ccccc6s5)c4C3)nc2C(=O)OCc2ccc(O[C@@H]3O[C@H](CO)[C@H](O)[C@H](O)[C@H]3O)c([N+](=O)[O-])c2)cnn1CC12CC3CC(CC(C3)C1)C2", "note": "[Compound A13bGa1]", "values": [
      {"measurement": "killing of the senescent cells, efficiency and selectivity", "setting": "[1]; A549 cells, lung-derived, FIG. 3E", "value": "highly efficient and selective in killing the senescent cells"},
      {"measurement": "killing of the senescent cells, efficiency and selectivity", "setting": "[2]; HEF cells, human skin-derived fibroblasts, FIG. 3B", "value": "highly efficient and selective in killing the senescent cells"},
      {"measurement": "killing of the senescent cells, efficiency and selectivity", "setting": "[4]", "value": "highly efficient and selective in killing the senescent cells"},
      {"measurement": "toxicity to the normal cells compared with the parent compound A13", "setting": "[5]", "value": "greatly reduced"},
      {"measurement": "degree of fibrosis, Masson staining: Moderately strong positive (+++)", "setting": "[3]", "value": "0 number of animals"},
      {"measurement": "degree of fibrosis, Masson staining: extremely strong positive (++++)", "setting": "[3]", "value": "0 number of animals"},
      {"measurement": "degree of fibrosis, Masson staining: moderately positive (++)", "setting": "[3]", "value": "1 number of animals"},
      {"measurement": "degree of fibrosis, Masson staining: not positive (−)", "setting": "[3]", "value": "3 number of animals"},
      {"measurement": "degree of fibrosis, Masson staining: weakly positive (+)", "setting": "[3]", "value": "2 number of animals"},
      {"measurement": "stability in the plasma", "setting": "[6]", "value": "highly stable"},
      {"measurement": "The hepatic extraction ratio (E)", "setting": "[7]", "value": 0.86},
      {"measurement": "The predicted intrinsic hepatic clearance Clint", "setting": "[7]; Fu and RB assumed to be 1", "value": 17.90, "unit": "mL/min/kg"},
      {"measurement": "CLint scaled at 1 h, 1 µM", "setting": "[7]; microsomes", "value": 132, "unit": "mL/min/kg"},
      {"measurement": "half-life at 1 h, 1 µM", "setting": "[7]; microsomes", "value": 13.1, "unit": "min"},
      {"measurement": "microsomal CLint at 1 h, 1 µM", "setting": "[7]; microsomes", "value": 106, "unit": "µL/min/mg"},
      {"measurement": "The hepatic extraction ratio (E)", "setting": "[8]", "value": 0.69},
      {"measurement": "The intrinsic clearance in vitro Clint", "setting": "[8]; 1 μM, 60 min", "value": 65.35, "unit": "μL/min/mg protein"},
      {"measurement": "The predicted intrinsic hepatic clearance Clint", "setting": "[8]; Fu and RB assumed to be 1", "value": 30.18, "unit": "mL/min/kg"},
      {"measurement": "CLint scaled at 1 µM", "setting": "[8]; microsomes", "value": 98, "unit": "mL/min/kg"},
      {"measurement": "half-life at 1 h, 1 µM", "setting": "[8]; microsomes", "value": 21.2, "unit": "min"}
    ]}
  ]
}
